Earlier results in publication PMC10368966, “Safety and efficacy of AK0529 in respiratory syncytial virus‐infected infant patients: A phase 2 proof‐of‐concept trial” (Influenza and Other Respiratory Viruses, 2023).

Tests used:
[1] = tested on: RSV; parameters: method as in PMID 32201897; conditions: cited from earlier work
[2] = tested on: SARS-CoV-2; parameters: method as in PMID 32423584; conditions: patients with severe COVID-19 ref 18; cited from earlier work
[3] = tested on: SARS-CoV-2; parameters: method as in PMID 32423584; conditions: cell cultures ref 18; cited from earlier work

Structure (SMILES) | length of hospital stay or time to clinical stability [1] | reduction in RSV viral load vs placebo [1] | effect on viral load [2] | time to clinical improvement [2] | inhibition of SARS-CoV-2 virus replication [3]
CS(=O)(=O)CCCn1c(Cn2c(=O)n(CC(F)(F)F)c3ccncc32)cc2cc(Cl)ccc21 [JNJ‐8678] | no improvements | greater reduction in RSV viral load than with placebo |  |  | 
CCC(CC)COC(=O)[C@H](C)N[P@](=O)(OC[C@H]1O[C@@](C#N)(c2ccc3c(N)ncnn23)[C@H](O)[C@@H]1O)Oc1ccccc1 [Remdesivir] |  |  | no effect | numerically shorter | potent inhibitor
